Measurements from patent US20070059687A1, “Process for evaluating phagocytotic function and use thereof” (priority 2001, published 2007).

Key:
[1] = tested on: SA digested sample; test: Enzymatic treatment of digested sample, bacterial bodies in leukocytes by acridine orange staining; format: cell-based, Staphylococcus aureus; design: key to enzymatic treatment determination: The determination was made as adequate when no bacterial body was identified in the leukocytes by the enzymatic treatment; settings: for enzymatic treatment determination: SA digested sample, once, twice, thrice
Method: (§1) Using the slide glass having each digested sample smeared thereon, the enzymatic pretreatment was performed according to the process described in Example 3. Next, the slide glass after completing the enzymatic pretreatment was placed in a humid box, and the reaction was allowed by dropping 1 ml of each enzyme solution prepared to give each titer on the smeared site of the specimen. Thereafter, the slide glass was immersed in PBS containing 0.2 mol/l hydrochloric acid, and in 70% ethanol respectively, for 10 minutes, and air dried. After immersing this slide glass in PBS containing 70 mmol/l sodium hydroxide for 3 minutes, and in 70% ethanol for 10 minutes, it was air dried and stained with 1% acridine orange staining solution. Then, evaluation was made with a fluorescence microscope (×1,000). For Staphylococcus aureus and Staphylococcus epidermidis, examination of the optimal titer was conducted with lysostafin. […] The determination was made as adequate when no bacterial body was identified in the leukocytes by the enzymatic treatment.
(§2) Using a slide glass including each digested sample smeared thereon, examination was conducted according to the process described in example 17 (2). Time period of the enzymatic treatment in this test was 30 minutes, and the temperature for examination was 4° C., 25° C., 37° C., 42° C., and 60° C.
(§3) Using the slide glass including each digested sample smeared thereon, examination was conducted according to the process described in example 17 (2). […] Determination was conducted according to the process described in example 17 (2). As a consequence, for all of Staphylococcus aureus, Staphylococcus epidermidis and Enterococcus faecalis digested samples, no bacterial body was found in the leukocytes with the time period of the enzymatic treatment of 20 minutes or longer (inadequate at 0 minute and 10 minutes). Therefore, the optimal time period of the enzymatic treatment is at least 15 minutes or longer, preferably 20 minutes or longer, and still preferably 30 minutes to 60 minutes.

[2] = tested on: Staphylococcus epidermidis; test: Lysis evaluated by decrease in turbidity at 600 nm; format: cell-based; settings: for Decrease in turbidity of bacteria: lysostafin 50 unit/ml
Source text: (§4) Conditions for the enzyme to lyse Staphylococcus aureus (ATCC 12600), Staphylococcus epidermidis (ATCC 14990), Pseudomonas aeruginosa (ATCC 10145), Enterococcus faecalis (ATCC 19433) and Escherichia coli (ATCC 11775) were studied. For Staphylococcus aureus and Staphylococcus epidermidis, lysostafin was used as the lytic enzyme (Bur. J. Biochem., 38, 293-300, 1973). […] Further, for Pseudomonas aeruginosa and Escherichia coli, PBS containing 70 mmol/l sodium hydroxide was used. Each type of these bacteria was inoculated in 5 ml of BHI (Brain Heart Infusion) liquid medium (manufactured by DIFCO), and cultured at 37° C. for 8 hours or longer. Thus cultured bacterial liquid was collected by centrifugation at 4° C. for 10 minutes at 2,000×g. The collected bacteria were suspended in PBS to give a sample.
Lysis was evaluated by decrease in turbidity of the bacterial liquid at the absorbance of 600 nm using a microplate reader. Consequently, Staphylococcus aureus and Staphylococcus epidermidis were lysed by lysostafin. In respect of Pseudomonas aeruginosa and Escherichia coli, no enzymatic treatment was required because lysis was conducted with PBS containing 70 mmol/l sodium hydroxide. […] Moreover, when the bacterium incorporated upon phagocytotic action is for example, Pseudomonas aeruginosa, Escherichia coli or the like, bacterial cell wall is lysed during the alkaline treatment to result in the state in which the gene is exposed. Therefore, it is not necessary to conduct this enzymatic treatment. Each enzyme for the pretreatment which is used in lysis of the foreign microorganism according to the present invention is effective not only for the aforementioned bacterial strain, but also for other bacterial strain that includes other genus staphylococcus, genus streptococcus, genus bacillus, genus micrococcus and the like. […] The results are illustrated in FIG. 3, specifically, in regard to: (a) Staphylococcus aureus and Staphylococcus epidermidis, (b) Pseudomonas aeruginosa and Escherichia coli, and (c) Enterococcus faecalis.
Enterococcus faecalis was inoculated in 50 ml of the aforementioned BHI liquid medium, and cultured at 37° C. for 8 hours or longer. This culture liquid was centrifuged at 4° C. for 10 minutes at 2,000×g to collect the bacteria, followed by subjecting to a heat treatment in an autoclave (120° C., for 10 minutes) after suspending in PBS. Next, the suspension was centrifuged at 4° C. for 10 minutes at 2,000×g, and the supernatant was discarded. Precipitates were suspended in 1 ml of PBS, and thereafter, subjected to freeze-drying. This freeze-dried sample was suspended in 5 mmol/l Tris-hydrochloric acid (pH 6.0), 2 mmol/l magnesium chloride containing 0 to 10% DMSO to give the samples for N-acetylmuramidase. Further, Micrococcus luteus (JCM1464) was inoculated in 5 ml of BHI liquid medium (supra), and cultured at 37° C. for 8 hours or longer. The cultured bacterial liquid was centrifuged at 4° C. for 10 minutes at 2,000×g to collect the bacteria. After discarding the supernatant, and suspending and washing the bacterial pellet with 5 ml of PBS, centrifugation was conducted once again at 4° C. for 10 minutes at 2,000×g to collect the bacteria. […] Enzymatic activity was evaluated on the basis of the decrease in turbidity of the sample at the absorbance of 600 nm using a microplate reader. […] Additionally, no decrease in enzymatic activity was found with DMSO at the concentration of 2% or less. […] The results are show in FIG. 4(a) to (c) and Table 3 below.

[3] = tested on: SE digested sample; test: Enzymatic treatment of digested sample, bacterial bodies in leukocytes by acridine orange staining; format: cell-based, Staphylococcus epidermidis; design: key to enzymatic treatment determination: The determination was made as adequate when no bacterial body was identified in the leukocytes by the enzymatic treatment; settings: for enzymatic treatment determination: SE digested sample, once, twice, thrice
Method: as §1, §2, §3

[4] = tested on: Staphylococcus aureus; test: Lysis evaluated by decrease in turbidity at 600 nm; format: cell-based; settings: FIG. 3(a)
Source text: as §4, with “sample. Lysis was evaluated by decrease in turbidity of the bacterial liquid at the absorbance of 600 nm using a microplate reader. Consequently, Staphylococcus aureus and Staphylococcus epidermidis were lysed by lysostafin. In respect of Pseudomonas aeruginosa and Escherichia coli, no enzymatic treatment was required because lysis was conducted with PBS containing 70 mmol/l sodium hydroxide. […]” for “sample.”

Q: Which enzymatic treatment determination ([1]; lysostafin titer 0.1 U/mL) does the source give for “Lysostafin: lytic enzyme used for Staphylococcus aureus and Staphylococcus epidermidis” here?
A: Inadequate

Q: And the enzymatic treatment determination ([1]; lysostafin titer 1 U/mL)?
A: adequate

Q: What about the enzymatic treatment determination ([1]; lysostafin titer 10 U/mL) of the same substance?
A: adequate

Q: What about the enzymatic treatment determination ([1]; lysostafin titer 100 U/mL) of the same substance?
A: adequate

Q: And the enzymatic treatment determination ([1]; lysostafin titer 1,000 U/mL)?
A: adequate

Q: And the “titer at which sufficient effects were exerted” value ([1]; lysis of Staphylococcus aureus)?
A: 1 unit/ml

Q: And the lysis ([2]; FIG. 3(a))?
A: lysed

Q: What about the “Decrease in turbidity of bacteria” value ([2]; added DMSO 0 % (control)) of the same substance?
A: 0.168 ± 0.017 O.D./10 minutes

Q: What about the “Decrease in turbidity of bacteria” value ([2]; added DMSO 0.1 %) of the same substance?
A: 0.164 ± 0.009 O.D./10 minutes

Q: And the “Decrease in turbidity of bacteria” value ([2]; added DMSO 1 %)?
A: 0.160 ± 0.008 O.D./10 minutes

Q: What about the “Decrease in turbidity of bacteria” value ([2]; added DMSO 2 %) of the same substance?
A: 0.145 ± 0.009 O.D./10 minutes

Q: And the “Decrease in turbidity of bacteria” value ([2]; added DMSO 5 %)?
A: 0.124 ± 0.006 O.D./10 minutes

Q: And the “Decrease in turbidity of bacteria” value ([2]; added DMSO 10 %)?
A: 0.094 ± 0.006 O.D./10 minutes

Q: And the enzymatic treatment determination ([3]; lysostafin titer 0.1 U/mL)?
A: inadequate

Q: What about the enzymatic treatment determination ([3]; lysostafin titer 1 U/mL) of the same substance?
A: inadequate

Q: What about the enzymatic treatment determination ([3]; lysostafin titer 10 U/mL) of the same substance?
A: adequate

Q: What about the enzymatic treatment determination ([3]; lysostafin titer 100 U/mL) of the same substance?
A: adequate

Q: What about the enzymatic treatment determination ([3]; lysostafin titer 1,000 U/mL) of the same substance?
A: adequate

Q: And the “titer necessary for lysis” value ([3]; lysis of Staphylococcus epidermidis)?
A: ≥ 10 unit/ml

Q: And the lysis [4]?
A: lysed
